In patent US20050164370A1 (priority 2003, published 2005):

Columns and labels:
[1] = tested on: transformed cells TM182-CRE1-CYC1IPT4; conditions: TM182-CRE1-CYC1IPT4, DOHLU+Glu agar containing 10 μM trans-zeatin, 30° C. for 30 hours
Description: (§1) After incubation, the growth state of the transformed cells was observed and photographed by a digital camera.

[2] = tested on: transformed cells TM182-AHK2-ADHIPT5; conditions: TM182-AHK2-ADHIPT5, DOHLU+Glu agar containing 10 μM trans-zeatin, 30° C. for 30 hours
Description: as §1

cytokinin receptor AHK2 = target: T1, cytokinin receptor AHK2 (Arabidopsis thaliana, UniProt Q9C5U2); conditions: TM182-AHK2, DOLU+Glu agar, 30° C. for 30 hours
T1 sequence (Q9C5U2 1-1176): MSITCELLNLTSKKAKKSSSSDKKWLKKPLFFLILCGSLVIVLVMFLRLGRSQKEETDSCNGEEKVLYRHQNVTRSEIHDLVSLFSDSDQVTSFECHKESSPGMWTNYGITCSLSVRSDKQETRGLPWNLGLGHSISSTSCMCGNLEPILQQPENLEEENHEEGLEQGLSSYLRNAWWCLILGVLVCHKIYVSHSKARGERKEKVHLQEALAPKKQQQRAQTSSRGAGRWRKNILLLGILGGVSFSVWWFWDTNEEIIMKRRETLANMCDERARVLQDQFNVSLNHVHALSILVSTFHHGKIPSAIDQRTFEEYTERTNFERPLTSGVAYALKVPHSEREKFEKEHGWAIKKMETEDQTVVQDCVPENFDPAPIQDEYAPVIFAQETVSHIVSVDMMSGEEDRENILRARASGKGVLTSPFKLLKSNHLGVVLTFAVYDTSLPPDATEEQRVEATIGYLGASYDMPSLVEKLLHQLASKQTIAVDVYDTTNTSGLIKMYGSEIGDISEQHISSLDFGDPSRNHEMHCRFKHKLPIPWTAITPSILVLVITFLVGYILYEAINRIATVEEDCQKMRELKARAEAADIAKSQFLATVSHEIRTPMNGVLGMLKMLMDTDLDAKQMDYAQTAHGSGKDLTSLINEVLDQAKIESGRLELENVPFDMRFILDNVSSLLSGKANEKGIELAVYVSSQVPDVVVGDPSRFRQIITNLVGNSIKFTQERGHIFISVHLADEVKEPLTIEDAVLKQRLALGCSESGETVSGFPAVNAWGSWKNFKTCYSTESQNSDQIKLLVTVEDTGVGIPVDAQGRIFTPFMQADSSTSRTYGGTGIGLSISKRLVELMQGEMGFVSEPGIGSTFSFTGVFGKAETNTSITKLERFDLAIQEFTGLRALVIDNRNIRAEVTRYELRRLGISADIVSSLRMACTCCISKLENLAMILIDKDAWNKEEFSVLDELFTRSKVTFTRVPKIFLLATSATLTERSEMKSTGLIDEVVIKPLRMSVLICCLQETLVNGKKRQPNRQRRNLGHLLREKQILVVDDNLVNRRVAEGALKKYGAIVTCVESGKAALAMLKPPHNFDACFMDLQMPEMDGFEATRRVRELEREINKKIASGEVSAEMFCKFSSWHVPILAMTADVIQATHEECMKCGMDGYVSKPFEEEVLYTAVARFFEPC
Description: (§2) A culture solution 10 μl (about 800 clones of yeast) of the transformed cells TM182-CRE1, TM182-AHK2, TM182-AHK2Δ and TM182-AHK3 produced by the example 12 was spotted on DOLU+Glu agar media containing 10 μM of trans-zeatin and cultured at 30° C. for 30 hours. After incubation, the growth state of the transformed cells was observed and photographed by a digital camera.
(§3) Culture solutions of the transformed cells TM182-CRE1, TM182-AHK2Δ and TM182-AHK2 produced by the reference example 1 were spotted on DOLU+Glu agar media containing cytokinin in a variety of concentrations (1 nM, 10 nM, 100 nM, 1 μM, 10 μM, 100 μM) and cultured at 30° C. for 30 hours. After incubation, the growth state of the transformed cells was observed and photographed by a digital camera.

cytokinin receptor AHK2Δ = target: T2, cytokinin receptor AHK2Δ (Arabidopsis thaliana, UniProt Q9C5U2); conditions: TM182-AHK2Δ, DOLU+Glu agar, 30° C. for 30 hours
T2 sequence (Q9C5U2 196-1176): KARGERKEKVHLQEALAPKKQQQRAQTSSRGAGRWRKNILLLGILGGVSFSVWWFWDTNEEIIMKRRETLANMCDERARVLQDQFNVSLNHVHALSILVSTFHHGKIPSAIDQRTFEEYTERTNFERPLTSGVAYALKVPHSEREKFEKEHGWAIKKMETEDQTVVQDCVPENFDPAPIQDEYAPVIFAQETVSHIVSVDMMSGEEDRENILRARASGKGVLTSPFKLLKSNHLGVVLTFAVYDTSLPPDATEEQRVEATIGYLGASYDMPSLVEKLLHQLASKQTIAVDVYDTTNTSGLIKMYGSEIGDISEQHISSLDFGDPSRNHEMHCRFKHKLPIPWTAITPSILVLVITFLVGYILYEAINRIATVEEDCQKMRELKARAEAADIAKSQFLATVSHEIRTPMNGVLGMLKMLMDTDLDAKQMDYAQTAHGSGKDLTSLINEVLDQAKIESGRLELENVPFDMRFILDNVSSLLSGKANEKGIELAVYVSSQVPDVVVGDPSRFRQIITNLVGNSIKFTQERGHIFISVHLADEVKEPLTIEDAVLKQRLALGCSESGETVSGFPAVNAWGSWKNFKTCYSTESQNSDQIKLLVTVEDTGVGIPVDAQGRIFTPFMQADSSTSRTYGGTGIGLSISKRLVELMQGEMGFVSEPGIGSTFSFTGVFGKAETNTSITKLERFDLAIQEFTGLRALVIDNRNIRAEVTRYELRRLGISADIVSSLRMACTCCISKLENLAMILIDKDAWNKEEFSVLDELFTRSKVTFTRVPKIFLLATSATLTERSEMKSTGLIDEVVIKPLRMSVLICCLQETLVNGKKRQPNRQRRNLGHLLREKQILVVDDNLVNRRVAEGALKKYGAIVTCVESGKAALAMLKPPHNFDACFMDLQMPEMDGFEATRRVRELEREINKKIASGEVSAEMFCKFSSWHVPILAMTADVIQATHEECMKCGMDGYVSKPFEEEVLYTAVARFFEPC
Description: as §2, §3

cytokinin receptor CRE1 = cytokinin receptor CRE1 (Arabidopsis thaliana, UniProt Q9C5U0, S567G/T1018A); conditions: TM182-CRE1, DOLU+Glu agar, 30° C. for 30 hours
Sequence of cytokinin receptor CRE1 (Q9C5U0 24-1080 S567G/T1018A): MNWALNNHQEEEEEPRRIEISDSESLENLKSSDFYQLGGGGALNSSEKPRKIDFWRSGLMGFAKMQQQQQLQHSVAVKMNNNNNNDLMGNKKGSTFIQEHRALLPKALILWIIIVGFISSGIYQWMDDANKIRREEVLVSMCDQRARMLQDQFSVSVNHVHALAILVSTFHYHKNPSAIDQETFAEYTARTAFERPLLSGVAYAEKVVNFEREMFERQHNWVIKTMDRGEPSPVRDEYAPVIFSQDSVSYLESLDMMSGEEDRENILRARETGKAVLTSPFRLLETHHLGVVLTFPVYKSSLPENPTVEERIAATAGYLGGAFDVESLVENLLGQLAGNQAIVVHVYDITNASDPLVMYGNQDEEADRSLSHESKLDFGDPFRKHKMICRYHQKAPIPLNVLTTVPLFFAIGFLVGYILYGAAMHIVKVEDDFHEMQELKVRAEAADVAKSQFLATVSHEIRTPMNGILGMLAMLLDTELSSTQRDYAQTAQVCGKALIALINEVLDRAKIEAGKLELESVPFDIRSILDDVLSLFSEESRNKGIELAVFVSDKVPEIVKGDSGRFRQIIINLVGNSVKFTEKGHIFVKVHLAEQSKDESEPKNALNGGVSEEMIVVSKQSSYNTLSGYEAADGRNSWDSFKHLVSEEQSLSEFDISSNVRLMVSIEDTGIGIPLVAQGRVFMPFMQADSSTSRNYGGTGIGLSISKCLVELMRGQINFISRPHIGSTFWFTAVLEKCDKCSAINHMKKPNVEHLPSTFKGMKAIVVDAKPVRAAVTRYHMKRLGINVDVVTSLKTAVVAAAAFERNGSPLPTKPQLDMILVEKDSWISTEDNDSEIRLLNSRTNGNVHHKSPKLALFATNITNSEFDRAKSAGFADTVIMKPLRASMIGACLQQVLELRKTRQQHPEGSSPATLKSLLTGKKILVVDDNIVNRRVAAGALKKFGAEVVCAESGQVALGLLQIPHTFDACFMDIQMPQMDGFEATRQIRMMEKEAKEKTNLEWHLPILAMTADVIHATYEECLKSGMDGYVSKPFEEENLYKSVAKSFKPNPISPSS
Description: as §2, §3

With `C/C(=C\CNc1ncnc2nc[nH]c12)CO` [trans-zeatin] the “growth state of the transformed cells” value [1] was “observed to grow”, the “growth state of the transformed cells” value [2] was “observed to grow” and the “lowest observed supply concentration in which the transformed cells could be grown” value (shortened to “lowest observed supply concentration”) (cytokinin receptor AHK2; 1 nM to 100 μM tested) was 1 µM. For the same compound, the “growth state of the transformed cells as compared with media containing no trans-zeatin” value (cytokinin receptor AHK2; 10 μM) was “high growth”, the “lowest observed supply concentration” value (cytokinin receptor AHK2Δ; 1 nM to 100 μM tested) was 100 nM and the “growth state of the transformed cells as compared with media containing no trans-zeatin” value (cytokinin receptor AHK2Δ; 10 μM) was “high growth”. The “lowest observed supply concentration” value (cytokinin receptor CRE1; 1 nM to 100 μM tested) was 10 µM and the “growth state of the transformed cells as compared with media containing no trans-zeatin” value (cytokinin receptor CRE1; 10 μM) was “high growth”.
